From US20220031690A1, “ANTI-NEURODEGENERATIVE DISEASE AGENT” (Hayashibara Co., Ltd., priority 2018, published 2022)

How the values were obtained:
[1] = Peroxyl radical scavenging ability (AAPH, ESR); assay type: biochemical; conditions: DMPO spin trap, AAPH 37° C.
Method: Since the peroxyl radical generated by heating of 2,2′-azobis (2-aminodipropane) dihydrochloride (hereinafter referred to as “AAPH”) is a model of biologically derived radicals, in this experiment, the ability of the test compound to scavenge the peroxyl radical was measured by ESR.
Specifically, each of the dye compounds dissolved in DMSO was diluted with 0.1 M phosphate buffer to prepare a test compound solution. […] Measurements were performed in triplicate for each of the concentrations of each test compound, and the IC50 was calculated using the mean value thereof and shown in Table 6.
(§1) Detailed conditions of the ESR measurement are described in this section. A reaction solution for measuring various radicals was placed in a flat quartz cell for ESR, and the ESR spectrum was measured by an ESR device (commercialized by JEOL Ltd., trade name “Free radical Controller JES-FR30”). […] The peak height of the ESR spectrum corresponding to each radical at this time was set as 100, and the relative intensity when the solution was added and reacted was obtained and expressed as the radical residual rate (%). […]

[2] = DPPH radical scavenging ability (absorbance method); assay type: biochemical
Description: 2,2-Diphenyl-1-picrylhydrazyl (hereinafter referred to as “DPPH”) is a radical with an unpaired electron and has the oxidizing ability of other substances. In addition, because it is stable and easy to handle, it is widely used as an artificial radical-like substance for measuring the antioxidant ability of antioxidants. When DPPH reacts with a substance having antioxidant ability, it loses its own oxidizing ability and its color changes from deep purple to […].
DPPH (commercialized by Tokyo Kasei Kogyo Co., Ltd., Tokyo, Japan) was dissolved in ethanol to prepare a 167 μM DPPH ethanol solution, and 90 μl of the solution was added to each well of the 96-well microplate. A 60 μl each of the test compound serially diluted with ethanol was added to the DPPH ethanol solution, and the mixture was reacted at room temperature for 2 hours, and then the absorbance at 490 nm was measured. […] From those value, the 50% inhibitory concentration of the DPPH radical (Hereinafter, it is referred to as “IC50”) was calculated.

[3] = Solubility in distilled water and ethanol (absorbance method); assay type: physicochemical
Method: A test sample solution, prepared by dissolving each test compound in DMSO to give a concentration of 5 mg/mL, was diluted with 70% (v/v) acetonitrile aqueous solution, and the absorption spectrum at the wavelength range of 400 nm to 900 nm is measured by a spectrophotometer (“FLEX STATION 3”, manufactured by Molecular Devices Japan, Tokyo, Japan). The maximum absorption wavelength of each test compound was determined, then the correlation equation between the absorbance and the concentration at the wavelength was calculated to prepare a calibration curve, and then the following quantitative test was carried out. […] The solubility of each dye compound was measured as follows with reference to the method described in the Japanese Pharmacopoeia. […] After 30 min, 1 mL of the mixture was sampled at 3 times from each test solution, centrifuged at 18,400×g for 5 min, 0.3 mL of the supernatant was collected and admixed with 0.7 mL of acetonitrile to make a total volume of 1.0 mL. Then, the absorbance was measured at the maximum absorption wavelength corresponding to each of the dyes described above, and the concentration of dye was calculated from the calibration curve.

[4] = Superoxide scavenging ability (hypoxanthine/xanthine oxidase, ESR); assay type: biochemical
Method: In this experiment, superoxide generated by reacting hypoxanthine with xanthine oxidase was captured by 5,5-dimethyl-4-phenyl-1-pyrroline N-oxide (hereinafter referred to as “4PDMPO”) as a spin trapping agent, and SOD-like activity by the test compound was measured by ESR.
Specifically, A 50 μl of aqueous solution of hypoxanthine (commercialized by Fuji Film Wako Pure Chemical Industries, Ltd., Tokyo, Japan) prepared to 1 mM was added to a glass test tube. […] The ESR spectrum of the reaction mixture was measured 40 seconds after the addition of xanthine oxidase, and the radical scavenging ability of the test compound was shown as its relative percentage thereof, with the case where no dye compound was added as the radical intensity of 100%. Measurements were performed in triplicate for each of the concentrations of each test compound, and the IC50 was calculated using the average value thereof and shown in Table 6. […]
A reaction solution for measuring various radicals was placed in a flat quartz cell for ESR, and the ESR spectrum was measured by an ESR device (commercialized by JEOL Ltd., trade name “Free radical Controller JES-FR30”). […] The peak height of the ESR spectrum corresponding to each radical at this time was set as 100, and the relative intensity when the solution was added and reacted was obtained and expressed as the radical residual rate (%). […]

[5] = Hydroxyl radical scavenging ability (Fenton reaction, ESR); assay type: biochemical; conditions: 4PDMPO spin trap
Method: In this experiment, hydroxyl radicals generating from diethylenetriamine-N, N, N′, N″-pentaacetic acid (DTPA) by Fenton reaction were trapped with 4PDMPO and measured by ESRs.
Specifically, each of the dye compounds dissolved in DMSO was diluted with purified water to obtain a test compound solution. To a glass test tube, 50 μl of 1 mM hydrogen peroxide solution and 50 μl of 356 mM 4PDMPO were added, followed by 50 μl of the test compound solution. Then, 50 μl of an aqueous solution containing 1 mM FeSO4 and 1 mM DTPA (commercialized by Fuji Film Wako Pure Chemical Industries, Ltd.) was added thereto, mixed with a vortex mixer for 10 seconds, and then reacted for exactly 40 seconds, and the reaction solution was used for ESR measurement. […]
as §1

PC12-HS cells = test: Intracellular ROS production after hydrogen peroxide stimulation (CM-H2DCFDA); assay type: cell-based, rat; conditions: for intercellular ROS production (%): 50 μM hydrogen peroxide only = 100%; for inhibitory effect on intercellular ROS production (in words): 125 to 1,000 nM
Description: From the above-mentioned Experiment 1-1 and Experiment 1-2, it was shown that NK-5 (Chemical formula 2), NK-5 analogs (Chemical formula 3 and Chemical formula 5) and NK-6 (Chemical formula 7) have strong neurocyte growth acceleration activity and neurite-outgrowth promoting activity, and therefore, it was verified by the following experiment whether these compounds also act effectively on oxidative damage to neurocyte. That is, PC12-HS cells were oxidatively stimulated with hydrogen peroxide, and the intracellular ROS generated at that time was quantified using a fluorescent reagent, and the inhibitory effect of the dye compounds on intercellular ROS production, when an external oxidative stress was applied, was evaluated.
Similar to Experiment 1-1 and Experiment 1-2, precultured PC12-HS cells were cultured for 24 hours with test compounds diluted in culture medium at final concentrations of 125, 250, 500 and 1000 nM. Thereafter, the culture supernatant was removed, the cells were washed with Hank's buffer (60 μM CaCl2), 400 μM MgSO4, 500 μM MgCl2), and then 100 μl of ROS detection reagent CM-H2DCFDA (commercialized by FUJIFILM Wako Pure Chemical Corporation, Tokyo, Japan) adjusted to 5 μM with the same buffer, was added to each well. The PC12-HS cells were cultured at 37° C. for 30 minutes to allow the cells to take up CM-H2DCFDA, and then, the solution containing CM-H2DCFDA was removed. Then, the cells were washed with Hank's buffer, and then added 50 μM of hydrogen peroxide (commercialized by FUJIFILM Wako Pure Chemical Corporation, Tokyo, Japan) diluted with Hank's buffer in a volume 100 μl/well and stimulated at 37° C. for 2 hours. The solution containing hydrogen peroxide was removed, then an 200 μl of Hank's buffer was added to each well, and the cells were measured for fluorescent intensity at a wavelength of 492-527 nm, which is an index of intracellular ROS production, by a fluorescence microplate reader. In addition, after measuring the fluorescence intensity, the cells were fixed by adding 20 μl of glutaraldehyde to each well, and the amount of methylene blue dye uptake was measured as an absorbance at 650 nm, according to a conventional method, the result was used as an index of the number of living cells. The amount of ROS production per cell was indicated by the value that fluorescence intensity (492-527 nm) was divided by the absorbance at 650 nm in each well. The amount of ROS production per cell calculated from cells to which only hydrogen peroxide was added without containing the test compound as a negative control, was set as 100%, and the relative value when the test compound was added was determined, and is shown in Table 3, as the ROS production rate (%) per cell of each well. Measurements were performed for each concentration of each test compound in triplicate, and the mean values were described.

Row | SMILES | IC50 [1] | relative DPPH radical scavenging activity based on the IC50 value, relative to NK-4 [2] | IC50 ([2]; ethanol, room temperature, 2 hours, absorbance at 490 nm) | Solubility Dictilled water ([3]; distilled water, room temperature, 30 min) | Solubility Ethanol ([3]; ethanol) | superoxide radical scavenging ability relative to NK-4 (comparison of IC50 values) [4] | IC50 ([4]; ESR, 4PDMPO spin trap, read-out: IC50 superoxide radical) | IC50 [5] | intercellular ROS production (%) (PC12-HS cells; 125 nM) | intercellular ROS production (%) (PC12-HS cells; 250 nM) | intercellular ROS production (%) (PC12-HS cells; 500 nM) | intercellular ROS production (%) (PC12-HS cells; 1,000 nM) | inhibitory effect on intercellular ROS production (in words) (PC12-HS cells)
1 | CCN1C=CC(=Cc2cc[n+](CC)c3ccccc23)c2ccccc21.[I-] [NK-6] | 43 µM | about 2 times | 380 µM | 93 µg/mL | 645 µg/mL | more than twice that of NK-4 | 69 µM | 62 µM | 108.6% | 81.2% | 69.8% | 66.2% | suppressed the intercellular ROS production induced by hydrogen peroxide stimulation, in a concentration-dependent manner
2 | CCN1C=CC(=CC=Cc2cc[n+](CC)c3ccccc23)c2ccccc21.[Br-] [NK-36] |  |  |  |  |  |  |  |  | 88% | 43.5% | 51% | 8.3% | suppressed the intercellular ROS production induced by hydrogen peroxide stimulation, in a concentration-dependent manner
3 | CCCCN1C=CC(=CC=Cc2cc[n+](CCCC)c3ccccc23)c2ccccc21.[I-] [NK-44] |  |  |  |  |  |  |  |  | 75.4% | 65.11% | 34.1% | 27.1% | suppressed the intercellular ROS production induced by hydrogen peroxide stimulation, in a concentration-dependent manner
